According to patent publication US20230125667A1, “NOVEL TDZD ANALOGS AS AGENTS THAT DELAY, PREVENT, OR REVERSE AGE-ASSOCIATED DISEASES AND AS ANTI-CANCER AND ANTILEUKEMIC AGENTS” (United States Government as represented by the Department …, priority 2020, published 2023):

How the values were obtained:
OVCAR-8 = test: NCI-60 growth inhibition: OVCAR-8 (Ovarian Cancer); type: cell-based, human
HOP-92 = test: NCI-60 growth inhibition: HOP-92 (Non-Small-Cell Lung Cancer); type: cell-based, human
TK-10 = test: NCI-60 growth inhibition: TK-10 (Renal Cancer); type: cell-based, human
HS 578T = test: NCI-60 growth inhibition: HS 578T (Breast Cancer); type: cell-based, human
NCI-H522 = test: NCI-60 growth inhibition: NCI-H522 (Non-Small-Cell Lung Cancer); settings: NCI-H522 (Non-Small-Cell Lung Cancer)
PC-3 = test: NCI-60 growth inhibition: PC-3 (Prostate Cancer); type: cell-based, human
786-0 = test: NCI-60 growth inhibition: 786-0 (Renal Cancer); type: cell-based, human
UO-31 = test: NCI-60 growth inhibition: UO-31 (Renal Cancer); type: cell-based, human
T-47D = test: NCI-60 growth inhibition: T-47D (Breast Cancer); type: cell-based, human
MDA-MB-231/ATCC = test: NCI-60 growth inhibition: MDA-MB-231/ATCC (Breast Cancer); type: cell-based, human
OVCAR-5 = test: NCI-60 growth inhibition: OVCAR-5 (Ovarian Cancer); type: cell-based, human
A498 = test: NCI-60 growth inhibition: A498 (Renal Cancer); type: cell-based, human
OVCAR-4 = test: NCI-60 growth inhibition: OVCAR-4 (Ovarian Cancer); type: cell-based, human
HL-60(TB) = test: NCI-60 growth inhibition: HL-60(TB) (Leukemia); type: cell-based, human; settings: HL-60(TB) (Leukemia); read-out: GI50
UACC-257 = test: NCI-60 growth inhibition: UACC-257 (Melanoma); type: cell-based, human
SK-MEL-5 = test: NCI-60 growth inhibition: SK-MEL-5 (Melanoma); type: cell-based, human
RPMI-8226 = test: NCI-60 growth inhibition: RPMI-8226 (Leukemia); type: cell-based, human
LOX IMVI = test: NCI-60 growth inhibition: LOX IMVI (Melanoma); type: cell-based, human
MOLT-4 = test: NCI-60 growth inhibition: MOLT-4 (Leukemia); type: cell-based, human
HCT-15 = test: NCI-60 growth inhibition: HCT-15 (Colon Cancer); type: cell-based, human
NCI-H460 = test: NCI-60 growth inhibition: NCI-H460 (Non-Small-Cell Lung Cancer); type: cell-based, human
SK-MEL-2 = test: NCI-60 growth inhibition: SK-MEL-2 (Melanoma); type: cell-based, human
COLO 205 = test: NCI-60 growth inhibition: COLO 205 (Colon Cancer); type: cell-based, human
DU-145 = test: NCI-60 growth inhibition: DU-145 (Prostate Cancer); type: cell-based, human
SNB-75 = test: NCI-60 growth inhibition: SNB-75 (CNS Cancer); type: cell-based, human
[1] = tested on: MV4-11 cell line (myelomonocytic leukemia); settings: MV4-11 cells, 24 h, MMB-TDZD analogs (Table 2)
SF-539 = test: NCI-60 growth inhibition: SF-539 (CNS Cancer); type: cell-based, human
M14 = test: NCI-60 growth inhibition: M14 (Melanoma); type: cell-based, human
SF-268 = test: NCI-60 growth inhibition: SF-268 (CNS Cancer); type: cell-based, human
RXF 393 = test: NCI-60 growth inhibition: RXF 393 (Renal Cancer); type: cell-based, human
K-562 = test: NCI-60 growth inhibition: K-562 (Leukemia); type: cell-based, human
IGROV1 = test: NCI-60 growth inhibition: IGROV1 (Ovarian Cancer); type: cell-based, human
HT29 = test: NCI-60 growth inhibition: HT29 (Colon Cancer); type: cell-based, human
SR = test: NCI-60 growth inhibition: SR (Leukemia); type: cell-based, human
U251 = test: NCI-60 growth inhibition: U251 (CNS Cancer); type: cell-based, human
MALME-3M = test: NCI-60 growth inhibition: MALME-3M (Melanoma); type: cell-based, human
HCT-116 = test: NCI-60 growth inhibition: HCT-116 (Colon Cancer); settings: HCT-116 (Colon Cancer)
SNB-19 = test: NCI-60 growth inhibition: SNB-19 (CNS Cancer); type: cell-based, human
BT-549 = test: NCI-60 growth inhibition: BT-549 (Breast Cancer); type: cell-based, human
CCRF-CEM = test: NCI-60 growth inhibition: CCRF-CEM (Leukemia); type: cell-based, human
SK-MEL-28 = test: NCI-60 growth inhibition: SK-MEL-28 (Melanoma); type: cell-based, human
MDA-MB-468 = test: NCI-60 growth inhibition: MDA-MB-468 (Breast Cancer); type: cell-based, human; settings: MDA-MB-468 (Breast Cancer); read-out: GI50
NCI-H23 = test: NCI-60 growth inhibition: NCI-H23 (Non-Small-Cell Lung Cancer); type: cell-based, human
EKVX = test: NCI-60 growth inhibition: EKVX (Non-Small-Cell Lung Cancer); type: cell-based, human
MCF7 = test: NCI-60 growth inhibition: MCF7 (Breast Cancer); type: cell-based, human
MDA-MB-435 = test: NCI-60 growth inhibition: MDA-MB-435 (Melanoma); type: cell-based, human
ACHN = test: NCI-60 growth inhibition: ACHN (Renal Cancer); type: cell-based, human
UACC-62 = test: NCI-60 growth inhibition: UACC-62 (Melanoma); type: cell-based, human
SW-620 = test: NCI-60 growth inhibition: SW-620 (Colon Cancer); type: cell-based, human
CAKI-1 = test: NCI-60 growth inhibition: CAKI-1 (Renal Cancer); type: cell-based, human
OVCAR-3 = test: NCI-60 growth inhibition: OVCAR-3 (Ovarian Cancer); type: cell-based, human
SN12C = test: NCI-60 growth inhibition: SN12C (Renal Cancer); type: cell-based, human

C=C1C(=O)O[C@H]2[C@H]1CC/C(COC(=O)NCc1ccc(Cn3c(=O)sn(CCCl)c3=O)cc1)=C\CC[C@@]1(C)O[C@@H]21 [BSK-140]
GI50 (OVCAR-8): 2040 nM | GI50 (HOP-92): 1500 nM | GI50 (TK-10): 1770 nM | GI50 (HS 578T): 12100 nM | GI50 (NCI-H522): 1380 nM | GI50 (PC-3): 8090 nM | GI50 (786-0): 1790 nM | GI50 (UO-31): 1650 nM | GI50 (T-47D): 1970 nM | GI50 (MDA-MB-231/ATCC): 1890 nM | GI50 (OVCAR-5): 1970 nM | GI50 (A498): 11500 nM | GI50 (OVCAR-4): 1920 nM | GI50 (HL-60(TB)): 1910 nM | GI50 (UACC-257): 1850 nM | GI50 (SK-MEL-5): 1700 nM | GI50 (RPMI-8226): 2370 nM | GI50 (LOX IMVI): 1690 nM | GI50 (MOLT-4): 1850 nM | GI50 (HCT-15): 1850 nM | GI50 (NCI-H460): 5100 nM | GI50 (SK-MEL-2): 10600 nM | GI50 (COLO 205): 1840 nM | GI50 (DU-145): 1720 nM | GI50 (SNB-75): 7650 nM | LD50, 7AAD (μM) 24 h ([1]; 7AAD): 4.42 µM | LD50, Alamar blue (μM) 24 h ([1]; Alamar blue): 1.50 µM | LD50, YOPRO (μM) 24 h ([1]; YOPRO): 2.88 µM | GI50 (SF-539): 1820 nM | GI50 (M14): 1820 nM | GI50 (SF-268): 3730 nM | GI50 (RXF 393): 1180 nM | GI50 (K-562): 2070 nM | GI50 (IGROV1): 2500 nM | GI50 (HT29): 2160 nM | GI50 (SR): 1480 nM | GI50 (U251): 6790 nM | GI50 (MALME-3M): 1720 nM | GI50 (HCT-116): 1620 nM | GI50 (SNB-19): 11900 nM | GI50 (BT-549): 1450 nM | GI50 (CCRF-CEM): 1730 nM | GI50 (SK-MEL-28): 1740 nM | GI50 (MDA-MB-468): 1780 nM | GI50 (NCI-H23): 2180 nM | GI50 (EKVX): 1990 nM | GI50 (MCF7): 1910 nM | GI50 (MDA-MB-435): 1740 nM | GI50 (ACHN): 1540 nM | GI50 (UACC-62): 1860 nM | GI50 (SW-620): 1170 nM | GI50 (CAKI-1): 1760 nM | GI50 (OVCAR-3): 1530 nM | GI50 (SN12C): 2010 nM
